Measured values as given in US9693971B2, “Compositions for alleviating gastrointestinal tract disorders or associated systemic disorders in ruminants and camelids” (FREIE UNIVERSITÄT BERLIN, priority 2012, dated 2017).
“Also recorded” adds a separate entry of the source.

Legend:
TRPV4 = TRPV4 (Homo sapiens, UniProt Q9HBA0); conditions: cited from earlier work
TRPV2 = molecular target: T1, TRPV2 (Homo sapiens, UniProt Q9Y5S1); conditions: cited from earlier work
T1 sequence (Q9Y5S1 1-764): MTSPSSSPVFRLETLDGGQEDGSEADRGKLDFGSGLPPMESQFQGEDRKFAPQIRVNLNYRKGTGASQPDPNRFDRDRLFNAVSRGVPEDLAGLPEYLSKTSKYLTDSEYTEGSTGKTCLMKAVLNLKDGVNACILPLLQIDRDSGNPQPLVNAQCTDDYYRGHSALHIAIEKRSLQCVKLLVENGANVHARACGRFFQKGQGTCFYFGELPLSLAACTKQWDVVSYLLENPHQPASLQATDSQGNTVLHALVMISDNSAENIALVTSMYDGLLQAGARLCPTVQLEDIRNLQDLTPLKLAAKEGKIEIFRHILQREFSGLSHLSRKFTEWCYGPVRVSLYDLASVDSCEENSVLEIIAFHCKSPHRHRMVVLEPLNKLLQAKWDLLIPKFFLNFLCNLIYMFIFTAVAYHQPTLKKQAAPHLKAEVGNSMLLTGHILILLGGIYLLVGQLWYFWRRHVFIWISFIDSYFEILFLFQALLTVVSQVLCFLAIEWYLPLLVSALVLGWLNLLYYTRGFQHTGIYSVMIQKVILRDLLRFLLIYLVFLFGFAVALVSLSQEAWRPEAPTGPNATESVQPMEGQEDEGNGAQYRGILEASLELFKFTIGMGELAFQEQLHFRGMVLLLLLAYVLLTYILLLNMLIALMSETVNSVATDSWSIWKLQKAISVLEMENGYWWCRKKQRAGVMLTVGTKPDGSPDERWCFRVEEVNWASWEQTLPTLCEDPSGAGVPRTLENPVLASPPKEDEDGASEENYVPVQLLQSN

TRPA1 = TRPA1 (Homo sapiens, UniProt O75762); conditions: cited from earlier work
TRPA1, sequence (O75762 whole entry, species assumed): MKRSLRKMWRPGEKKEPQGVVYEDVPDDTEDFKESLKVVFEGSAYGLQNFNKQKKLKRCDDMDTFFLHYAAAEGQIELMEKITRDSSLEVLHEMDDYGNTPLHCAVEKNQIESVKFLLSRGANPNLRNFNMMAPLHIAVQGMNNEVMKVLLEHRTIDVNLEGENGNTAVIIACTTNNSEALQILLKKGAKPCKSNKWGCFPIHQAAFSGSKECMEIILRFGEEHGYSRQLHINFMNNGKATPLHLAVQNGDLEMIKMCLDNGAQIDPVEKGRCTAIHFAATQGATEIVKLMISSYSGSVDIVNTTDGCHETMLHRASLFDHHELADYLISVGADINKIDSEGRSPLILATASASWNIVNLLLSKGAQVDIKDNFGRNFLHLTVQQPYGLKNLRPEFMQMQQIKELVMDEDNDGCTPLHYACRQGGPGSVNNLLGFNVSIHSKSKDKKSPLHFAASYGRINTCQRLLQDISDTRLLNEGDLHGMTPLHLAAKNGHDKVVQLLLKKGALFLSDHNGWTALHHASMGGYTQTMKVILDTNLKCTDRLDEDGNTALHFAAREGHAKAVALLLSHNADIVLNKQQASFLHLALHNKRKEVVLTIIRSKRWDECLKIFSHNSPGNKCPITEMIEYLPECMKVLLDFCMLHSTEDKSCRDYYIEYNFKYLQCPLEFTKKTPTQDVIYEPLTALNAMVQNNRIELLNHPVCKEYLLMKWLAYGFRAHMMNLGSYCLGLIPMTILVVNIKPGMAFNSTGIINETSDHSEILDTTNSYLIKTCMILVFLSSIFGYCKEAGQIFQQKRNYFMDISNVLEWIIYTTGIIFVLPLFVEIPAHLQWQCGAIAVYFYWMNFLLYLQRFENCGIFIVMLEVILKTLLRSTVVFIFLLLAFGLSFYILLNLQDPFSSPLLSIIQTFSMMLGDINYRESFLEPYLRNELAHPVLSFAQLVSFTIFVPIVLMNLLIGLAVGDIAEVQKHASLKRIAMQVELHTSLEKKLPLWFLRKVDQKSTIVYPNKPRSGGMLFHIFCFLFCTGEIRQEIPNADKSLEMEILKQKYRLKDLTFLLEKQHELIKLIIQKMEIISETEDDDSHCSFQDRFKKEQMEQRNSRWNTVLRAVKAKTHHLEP

[1] = system: rumen epithelium from cattle; test: Ussing chamber: ammonium-induced transepithelial short-circuit current (Isc) across isolated rumen epithelium; type: cell-based; conditions: for influence on ammonium-induced conductivity / transport across rumen epithelium (profile in words): no concentration stated
Excerpt: The experiments on the intact epithelium take place as already specified (Abdoun, Stumpff et al. 2005; Abdoun, Stumpff et al. 2010). The measuring techniques used are a combination of the Ussing chamber technique developed by Ussing (1949) and the microelectrode technique.
When examining epithelial transport processes with the Ussing chamber, the epithelium is installed in a special chamber, which makes it possible to rinse the two sides of the epithelium (apical: food side; basolateral: blood side) separately of each other with buffer solutions of various composition, wherein the electrophysiological parameters (current and voltage) across the epithelium are traced. Hereby, it is made possible to differentiate between the transport of an uncharged substance (e.g. ammonia, NH3) and the transport of a charged substance (e.g. ammonium, NH4^+), as the former takes place without a change in current and voltage, whereas the latter is coupled with the transfer of a charge and thus changes the transepithelial electrical parameters.
With the help of a special modification, the reaction of individual epithelia to solution changes, taking place very rapidly and smoothly, is also examined over time. Hereby, for example, the reproducibility of a pharmacological intervention on the same piece of epithelium can very well be examined. This modification of the classic Ussing chamber technique is particularly, albeit not exclusively, used for the comparative “screening” of the various substances which are subject of an aspect of the present invention.
The epithelium is horizontally clamped into a modified Ussing chamber, wherein the mucosal side faces upwards. The chamber made of plexi-glass has a cross-section surface of 0.79 cm^2, which is corrected to 1 cm^2. As a protection against damages on the edges of the epithelium, “edge damage”, a silicone ring is in each case placed between chamber and epithelium. The two resulting chambers (mucosal and serosal) are each supplied by their own perfusion system (4-channel-stand-pump, Ismatec SA). With three-way valves, an independent solution change between altogether eight solutions is possible in the two chambers. During storage, the solutions are gassed in their containers with 100% O2. To warm the solutions up to 37° C., the thin perfusion tubes run through a heat exchanger pump. The suction device (Masterflex R/S, Cole Parmer Instrument Company) present in both chambers guarantees a rapid and safe change of solution. In order to ensure that there are no solution change artefacts when adding agonists and antagonists, the substances are pipetted into the respective solution, wherein the gassing ensures a rapid mixing. In this way, pressure fluctuations or an interruption of the flow through the chamber can be safely precluded.
As in the conventional Ussing chamber technique, there are in each case two electrodes near the tissue and two electrodes distant from the tissue for measuring the transepithelial potential difference and the transepithelial current (Isc). The connections between the Ag/AgCl electrodes, which are filled with 3 M KCl, are established via agar bridges. Just as in Strecker (Strecker 2011), the measuring chamber is connected to a “voltage clamp” installation (Ussing chamber unit) in assembly with a microelectrode amplifier (both Biomedical Instruments Co., Germering). A micromanipulator (MF 500) installed above the measuring chamber offers the possibility to move the microelectrode in fine μm steps. Additionally, a microscope as well as a cold-light source are located above the apparatus.
Menthol (Sigma-Aldrich) was dissolved at a concentration of 1 mol·l^−1 in ethanol and pipetted into the used test solution containing ammonium. For an end concentration of 1 mmol·l^−1, 20 μl of this stock solution was added to 20 ml test solution; for 200 μmol·l^−1 correspondingly less. In control experiments, corresponding amounts of pure ethanol were added to the test solution.

rumen epithelium [2] = test: Ca^45 calcium flux across rumen epithelium in conventional Ussing chambers, menthol vs control group; type: cell-based; conditions: menthol 200 μM or 1 mM; N=4 cattle, n=85 epithelia; FIG. 10A
Excerpt: (§1) Supplementary, the transport rate of a substance across the epithelium is quantitatively determined by examining the buffer solution prior to and after a defined test period (in conjunction with the methods of an aspect of the present invention for determining the ammonia flux by means of an ammonia electrode (Thermo Scientific Orion 9512HPBNWP, Thermo Fisher Scientific Inc., Waltham, Mass. 02454) while at the same time registering shifts in the solution pH, or measuring the calcium flux with radioactive isotopes).
(§2) For a direct verification of a modulation of the calcium transport across the rumen epithelium, a radioactive calcium isotope (Ca^45) was employed in further experiments. The measurements were carried out in conventional Ussing chambers without continuous perfusion. Herein, tissue of N=4 (cattle) was collected and n=85 epithelia were used therein.
(§3) The isotope was employed on the mucosal side (corresponding to the side on which the food is) and the emergence on the blood side was measured.
Approach: Three groups were formed. One group remained untreated as control. The other two groups were each treated with menthol at a dose of 200 μM or 1 mM, respectively, and compared to the control (100%).

E. coli = conditions: 0.3% menthol in feed dry mass (8 g menthol/day) for 30 days, bulls; cited from earlier work
TRPV3 = molecular target: T2, TRPV3 (Homo sapiens, UniProt Q8NET8); conditions: cited from earlier work
T2 sequence (Q8NET8 1-790): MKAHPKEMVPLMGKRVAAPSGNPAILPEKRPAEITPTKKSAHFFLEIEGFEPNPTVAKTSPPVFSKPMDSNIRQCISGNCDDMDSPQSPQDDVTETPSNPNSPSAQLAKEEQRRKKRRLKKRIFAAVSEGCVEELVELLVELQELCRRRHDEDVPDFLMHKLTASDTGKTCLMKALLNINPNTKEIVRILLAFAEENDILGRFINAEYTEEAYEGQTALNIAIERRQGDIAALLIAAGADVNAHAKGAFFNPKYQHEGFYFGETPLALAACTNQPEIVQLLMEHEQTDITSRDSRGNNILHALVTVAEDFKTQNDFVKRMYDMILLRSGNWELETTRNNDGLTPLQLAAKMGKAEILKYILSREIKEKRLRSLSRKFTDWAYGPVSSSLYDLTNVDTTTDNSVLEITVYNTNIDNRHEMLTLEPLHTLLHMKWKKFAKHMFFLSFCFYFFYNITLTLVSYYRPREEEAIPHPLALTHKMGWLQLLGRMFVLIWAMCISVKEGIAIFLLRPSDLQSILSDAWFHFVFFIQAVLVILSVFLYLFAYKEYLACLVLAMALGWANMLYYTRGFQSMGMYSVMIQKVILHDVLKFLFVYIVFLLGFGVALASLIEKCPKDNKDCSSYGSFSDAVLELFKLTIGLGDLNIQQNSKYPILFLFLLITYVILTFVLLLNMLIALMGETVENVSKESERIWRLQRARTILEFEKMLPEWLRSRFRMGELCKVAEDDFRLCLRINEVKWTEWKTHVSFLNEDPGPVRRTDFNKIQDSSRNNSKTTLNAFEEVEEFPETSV

TRPM8 = TRPM8 (Homo sapiens, UniProt Q7Z2W7); conditions: cited from earlier work
TRPM8, sequence (Q7Z2W7 whole entry, species assumed): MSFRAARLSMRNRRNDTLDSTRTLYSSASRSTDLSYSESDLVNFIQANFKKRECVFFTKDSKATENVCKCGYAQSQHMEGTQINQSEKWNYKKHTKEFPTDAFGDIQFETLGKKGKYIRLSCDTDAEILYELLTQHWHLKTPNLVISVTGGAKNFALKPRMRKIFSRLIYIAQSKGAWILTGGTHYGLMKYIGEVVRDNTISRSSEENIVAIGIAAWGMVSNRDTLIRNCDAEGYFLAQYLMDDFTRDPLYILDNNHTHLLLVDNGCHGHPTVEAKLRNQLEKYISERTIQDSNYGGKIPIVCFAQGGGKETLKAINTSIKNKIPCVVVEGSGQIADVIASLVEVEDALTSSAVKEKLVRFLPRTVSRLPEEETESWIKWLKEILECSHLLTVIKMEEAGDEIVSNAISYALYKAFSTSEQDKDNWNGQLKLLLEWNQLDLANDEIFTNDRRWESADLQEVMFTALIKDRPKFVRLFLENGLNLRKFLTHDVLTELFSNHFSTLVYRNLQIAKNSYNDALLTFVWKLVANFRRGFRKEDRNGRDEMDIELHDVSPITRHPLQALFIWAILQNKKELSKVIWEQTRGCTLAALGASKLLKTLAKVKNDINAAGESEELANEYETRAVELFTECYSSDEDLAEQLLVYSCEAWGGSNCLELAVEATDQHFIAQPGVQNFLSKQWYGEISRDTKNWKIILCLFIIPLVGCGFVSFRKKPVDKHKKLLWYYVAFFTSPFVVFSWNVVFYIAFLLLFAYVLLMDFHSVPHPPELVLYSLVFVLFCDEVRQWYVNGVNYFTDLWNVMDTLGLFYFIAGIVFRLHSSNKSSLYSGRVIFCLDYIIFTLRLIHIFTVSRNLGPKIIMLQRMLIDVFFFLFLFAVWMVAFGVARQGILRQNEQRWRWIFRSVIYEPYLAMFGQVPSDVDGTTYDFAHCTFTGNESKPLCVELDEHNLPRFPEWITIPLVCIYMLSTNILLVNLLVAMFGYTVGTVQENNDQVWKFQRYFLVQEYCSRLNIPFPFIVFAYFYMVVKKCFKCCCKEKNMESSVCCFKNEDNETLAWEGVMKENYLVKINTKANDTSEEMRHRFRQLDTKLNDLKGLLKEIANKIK

rumen epithelium [3] = test: Ca^45 calcium flux across rumen epithelium in conventional Ussing chambers, thymol vs basal value; type: cell-based, one cow, one sheep; conditions: after adding thymol; N=2, n=44 epithelia; FIG. 10B
Excerpt: as §1, §2, §3
Approach: First, a basal value of the Ca flux across the rumen epithelium was detected. Then a substance was added. The subsequently measured Ca flux was compared to the starting value (100%). […]

[4] = system: bacteria flora in the ruminal fluid; conditions: in vitro, thymol 3-12 g/60 l; cited from earlier work
bacteria flora = conditions: 1.5 mM thymol (corresponding to 14 g/60 l ruminal fluid); cited from earlier work
[5] = corresponding to 30 g/60 l; cited from earlier work

TRPV4, sequence (Q9HBA0 whole entry, species assumed): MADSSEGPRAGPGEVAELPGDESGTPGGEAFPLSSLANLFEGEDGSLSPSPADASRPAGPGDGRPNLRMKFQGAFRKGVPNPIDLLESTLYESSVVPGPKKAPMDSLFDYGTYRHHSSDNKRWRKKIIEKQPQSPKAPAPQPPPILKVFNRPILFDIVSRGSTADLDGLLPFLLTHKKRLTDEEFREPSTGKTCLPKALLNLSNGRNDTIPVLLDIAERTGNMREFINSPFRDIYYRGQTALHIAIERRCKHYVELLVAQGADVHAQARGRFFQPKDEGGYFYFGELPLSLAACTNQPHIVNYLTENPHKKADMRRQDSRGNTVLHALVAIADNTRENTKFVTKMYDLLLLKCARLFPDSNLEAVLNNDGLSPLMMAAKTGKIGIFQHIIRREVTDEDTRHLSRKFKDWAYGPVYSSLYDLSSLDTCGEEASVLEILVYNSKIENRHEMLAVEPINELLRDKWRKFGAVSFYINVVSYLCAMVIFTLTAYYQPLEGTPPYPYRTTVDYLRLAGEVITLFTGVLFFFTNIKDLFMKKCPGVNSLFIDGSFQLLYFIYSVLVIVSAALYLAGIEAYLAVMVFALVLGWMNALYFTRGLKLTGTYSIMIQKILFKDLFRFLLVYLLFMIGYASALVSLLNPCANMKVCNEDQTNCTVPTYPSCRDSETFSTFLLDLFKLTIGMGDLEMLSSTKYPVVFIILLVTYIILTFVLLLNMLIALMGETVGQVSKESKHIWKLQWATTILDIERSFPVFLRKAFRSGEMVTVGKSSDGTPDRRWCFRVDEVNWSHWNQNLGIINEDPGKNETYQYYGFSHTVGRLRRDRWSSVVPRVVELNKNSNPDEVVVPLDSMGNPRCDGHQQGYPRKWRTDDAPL

For `C=C1CC[C@@H]2[C@](C)(CO)[C@H](O)CC[C@@]2(C)[C@@H]1/C=C/C1=CC(C(C[C@@H]2C(=C)CC[C@@H]3[C@](C)(CO)[C@H](O)CC[C@]32C)C2=CCOC2=O)OC1=O` (some centres unmarked) [Bisandrographolide A], the “Effect on TRPV4” value (TRPV4) is given as “Agonist”.
In the case of `CCCCCc1cc(O)c2c(c1)OC(C)(C)[C@@H]1CCC(C)=C[C@@H]21` [Tetrahydrocannabinol, tetrahydrocannabinol], the “Effect on TRPV2” value (TRPV2) is given as “Agonist” and the “Effect on TRPA1” value (TRPA1) is given as “Agonist”.
With `CC1CCC(C(C)C)C(O)C1` (centres unmarked) [menthol] the “transepithelial current, Median” value ([1]; 200 μM menthol in 40 mM NH4^+, n=11, before −30.65) was −34.21 μA · cm^−2, the “transepithelial current, MV” value ([1]; 200 μM menthol in 40 mM NH4^+, n=11, before −30.99, washout −26.42) was −36.34 μA · cm^−2 and the “change of transepithelial current or voltage” value ([1]; 200 μmol·l^−1 to 1 mmol·l^−1 added to solution containing ammonium, apical) was “further considerable rise in the transepithelial current”. The “change of short-circuit current (Isc)” value ([1]; 1 mM menthol after 40 mM NH4Cl mucosal, FIG. 1 and 2, 13 measurements, three epithelia) was “further rise in that current; also recorded: statistically significant increase in the current across the epithelium”, the “transepithelial current, Median” value ([1]; 1 mM menthol in 40 mM NH4^+, n=12, before −22.76) was −26.90 μA · cm^−2 and the “transepithelial current, MV” value ([1]; 1 mM menthol in 40 mM NH4^+, n=12, before −24.20, washout −20.88) was −28.73 μA · cm^−2. The “influence on ammonium-induced conductivity / transport across rumen epithelium (profile in words)” value [1] was “significantly influenced”, the “calcium transport across the rumen tissue compared to control group (100%)” value (rumen epithelium [2]) was “concentration-dependent increase in the calcium transport” and the “influence on the amount of E. coli in the feces” value (E. coli) was “no influence on the amount of E. coli in the feces”. For the same molecule, the “Effect on TRPV3” value (TRPV3) was “nonspecific”, the “Effect on TRPM8” value (TRPM8) was “potent TRPM8 agonist” and the “Effect on TRPA1” value (TRPA1) was “Antagonist”.
For `Cc1ccc(C(C)C)c(O)c1` [thymol], the “transepithelial current, Median” value ([1]; 100 μM thymol in 40 mM NH4^+, n=4, before −19.30) was −19.35 μA · cm^−2, the “transepithelial current, MV” value ([1]; 100 μM thymol in 40 mM NH4^+, n=4, before −22.47, washout −15.82, p = 0.498) was −22.19 μA · cm^−2 and the “influence on ammonium-induced conductivity / transport across rumen epithelium (profile in words)” value [1] was “inhibition, which can still be verified after washing out”. For the same molecule, the “Ca flux across the rumen epithelium compared to starting value (100%)” value (rumen epithelium [3]) was “no significant long-term reduction of the calcium transport; also recorded: trend to increase the calcium resorption”, the “effect on the bacteria flora in the ruminal fluid” value [4] was “no effect on the bacteria flora in the ruminal fluid” and the “influence on methane, ammonium, acetate and propionate production” value (bacteria flora) was “no influence on the methane, ammonium, acetate and propionate production”. For the same molecule, the “concentration with significant influence on pH, NH3 concentration and production of volatile fatty acids (VFA)” value [5] was ≥ 500 mg/1 and the “Effect on TRPV3” value (TRPV3) was “TRPV3 agonist; also recorded: nonspecific”.
